Measured values: ChEMBL document CHEMBL4627328, “Synthesis and in vitro evaluation of antimycobacterial and cytotoxic activity of new α,β-unsaturated amide, oxazoline and oxazole derivatives from l-serine” (Bioorg Med Chem Lett, 2020)
In brackets after ≈: the same amount, converted by molar mass.

system: Mycobacterium tuberculosis; test: Antimycobacterial activity against multidrug resistant Mycobacterium tuberculosis G122 incubated for 5 days by alamar blue based colorimetric assay; format: functional; conditions: G122, 120 h

| SMILES | MIC [µM] |
| --- | --- |
| COC(=O)c1coc(/C=C/c2ccccc2)n1 | 54.5 (≈ 12.5 µg/mL) |
| COC(=O)[C@H](COC(=O)/C=C/c1ccc(C)cc1)NC(=O)/C=C/c1ccc(C)cc1 | > 245 |
| COC(=O)[C@H](COC(=O)/C=C/c1ccc(OC)cc1)NC(=O)/C=C/c1ccc(OC)cc1 | > 228 |
| COC(=O)[C@@H]1COC(/C=C/c2ccccc2)=N1 | 54.1 (≈ 12.5 µg/mL) |
| COC(=O)[C@H](COC(=O)/C=C/c1ccc(F)cc1)NC(=O)/C=C/c1ccc(F)cc1 | > 241 |
| COC(=O)c1coc(/C=C/c2ccc(OC)cc2)n1 | 48.2 (≈ 12.5 µg/mL) |
| O=C(/C=C/c1ccc(F)cc1)O/C(=N/C1CCCCC1)NC1CCCCC1 | > 268 |
| CC[C@@H](CO)NCCN[C@@H](CC)CO [ETHAMBUTOL] | > 30.5 |
| C[C@H]1COc2c(N3CCN(C)CC3)c(F)cc3c(=O)c(C(=O)O)cn1c23 [LEVOFLOXACIN] | 0.54 (≈ 0.195 µg/mL) |
| COC(=O)c1coc(/C=C/c2ccc(C)cc2)n1 | 25.7 (≈ 6.25 µg/mL) |
| COC(=O)[C@H](CO)NC(=O)/C=C/c1ccccc1 | > 401 |
| CO[C@H]1/C=C/O[C@@]2(C)Oc3c(C)c(O)c4c(O)c(c(/C=N/N5CCN(C)CC5)c(O)c4c3C2=O)NC(=O)/C(C)=C\C=C\[C@H](C)[C@H](O)[C@@H](C)[C@@H](O)[C@@H](C)[C@H](OC(C)=O)[C@@H]1C [RIFAMPIN] | 0.23 (≈ 0.189 µg/mL) |
| COC(=O)[C@H](CO)NC(=O)/C=C/c1ccc(OC)cc1 | > 358 |
| O=C(/C=C/c1ccccc1)O/C(=N/C1CCCCC1)NC1CCCCC1 | > 282 |
| COC(=O)[C@H](COC(=O)/C=C/c1ccccc1)NC(=O)/C=C/c1ccccc1 | > 264 |
| COC(=O)[C@@H]1COC(/C=C/c2ccc(OC)cc2)=N1 | 47.8 (≈ 12.5 µg/mL) |
| COC(=O)[C@H](CO)NC(=O)/C=C/c1ccc(C)cc1 | > 380 |
| COC(=O)[C@@H]1COC(/C=C/c2ccc(F)cc2)=N1 | 100 (≈ 25 µg/mL) |
| COC(=O)[C@@H]1COC(/C=C/c2ccc(C)cc2)=N1 | 50.9 (≈ 12.5 µg/mL) |
| Cc1ccc(/C=C/C(=O)O/C(=N/C2CCCCC2)NC2CCCCC2)cc1 | > 271 |
| COC(=O)c1coc(/C=C/c2ccc(F)cc2)n1 | 50.5 (≈ 12.5 µg/mL) |
| COC(=O)[C@H](CO)NC(=O)/C=C/c1ccc(F)cc1 | > 374 |
